This note sets out measurements from ChEMBL document CHEMBL3272051, “Some 9-hydroxycannabinoid-like compounds. Synthesis and evaluation of analgesic and behavioral properties” (J Med Chem, 1979).

The source made the active and inactive calls. The rule behind the calls is not given here.

The subject of data set [1] is Canis familiaris. As to the kind of experiment: Effect on overt behavior in dog assessed as prostration at 4 to 10 mg/kg, iv. The following applies: in vivo. Set-up: dose 4-10 mg/kg, route intravenous. The data set is classed as organism-based, Canis lupus familiaris.
Data set [2] concerns Mus musculus. As to the kind of experiment: Analgesic activity in mouse at 50 mg/kg, sc by hot plate test. Set-up: dose 50 mg/kg. The data set is classed as functional, organism-based.
Data set [3] has as its system Canis familiaris. As to the kind of experiment: Effect on overt behavior in dog assessed as static ataxia at 0.05 to 10 mg/kg, iv. The data set is classed as ADME, organism-based, Canis lupus familiaris. Set-up: dose 0.05-10 mg/kg, route intravenous. The following applies: in vivo.
Data set [4] deals with Canis familiaris. As to the kind of experiment: Effect on overt behavior in dog assessed as hyperreflexia at 0.05 to 10 mg/kg, iv. The following applies: in vivo. Also noted: dose 0.05-10 mg/kg, route intravenous. The data set is classed as organism-based, Canis lupus familiaris.
Data set [5] concerns Mus musculus. As to the kind of experiment: Analgesic activity in sc dosed mouse by hot plate test. It counts as functional. (In general: Hot-plate and tail-flick tests time the reaction to a heat stimulus.)
The species named for data set [6] is Mus musculus. As to the kind of experiment: Analgesic activity in mouse assessed as inhibition of p-phenylquinone-induced writhing relative to morphine. It counts as functional. On the technique in general: An intraperitoneal irritant provokes the stretching counted in writhing tests.
The species entered for data set [7] is Mus musculus. As to the kind of experiment: animal or person. The data set is classed as functional. The conditions noted are these: Tail, sc.
Data set [8] is filed under the species Mus musculus. As to the kind of experiment: Analgesic activity in mouse by tail-flick test relative to morphine. The data set is classed as functional.
Data set [9] deals with Mus musculus. As to the kind of experiment: Analgesic activity in mouse at 20 mg/kg, sc by hot plate test. The data set is classed as functional, organism-based. Also noted: dose 20 mg/kg.
Data set [10] has as its system Canis familiaris. As to the kind of experiment: Effect on overt behavior in dog assessed as depression at 0.05 to 10 mg/kg, iv. The data set is classed as organism-based, Canis lupus familiaris. Also noted: dose 0.05-10 mg/kg, route intravenous. The following applies: in vivo.
Data set [11] deals with Mus musculus. As to the kind of experiment: Analgesic activity in mouse at 10 mg/kg, sc by tail-flick test. It counts as functional, organism-based. Also noted: dose 10 mg/kg.

Regarding `CCCCCc1cc(O)c2c(c1)OC(C)(C)C1=C2CC(O)CC1` (racemic), the Activity entry with Canis familiaris [1], in the data set on Canis familiaris [3] and in the data set on Canis familiaris [4] was “Toxic” throughout. The outcome in the data set on Mus musculus [2] was inactive.
In the case of `CCCCCc1cc(O)c2c(c1)OC(C)(C)[C@@H]1CCC(C)=C[C@@H]21` [DRONABINOL], the Activity result in the data set with Canis familiaris [1] is “Toxic”.
Still for that read-out and setting: to `CCCCCc1cc(O)c2c(c1)OC(C)(C)[C@H]1CC[C@H](O)C[C@H]21` belongs “Toxic”.
Regarding `CCCCCc1cc(O)c2c(c1)OC(C)(C)C1CCC(O)CC21` (racemic), in the data set on Canis familiaris [1], the Activity result is reported as “Toxic”. In the data set with Mus musculus [5], the 50% effect level (ED50) was put at a dose of 2.9 mg/kg.
Take `CCCCCc1cc(O)c2c(c1)OC(C)(C)[C@@H]1CC[C@@H](O)C=C21` (racemic): the Activity result in the data set on Canis familiaris [1], in the data set with Canis familiaris [3] and in the data set on Canis familiaris [4] was “Toxic” throughout. Also, the result in the data set with Mus musculus [2] was inactive.
`CCCCCc1cc(O)c2c(c1)OC(C)(C)[C@@H]1CC[C@@H](O)C[C@@H]21`: the “fold change (FC)” value in the data set listed under Mus musculus [6] was determined as 20; in the data set filed under Mus musculus [8] it was 5. In addition, the Activity result in the data set on Canis familiaris [1] is “Toxic”. Besides, the ED50 – broadly, the dose at which the effect has come halfway, by size or by number of responders – in the data set with Mus musculus [5] came out at 1.6 mg/kg; in the data set filed under Mus musculus [7] it was 1 mg/kg.
In the case of `CCCCCc1cc(O)c2c3c(c(=O)oc2c1)CCC(O)C3` (racemic), in the data set with Mus musculus [9], the result was inactive. In addition, the Activity entry in the data set on Canis familiaris [1] is “Toxic”; in the data set on Canis familiaris [10], “Toxic”; in the data set with Canis familiaris [3], “Non-toxic”; with Canis familiaris [4] it was “Non-toxic”.
As for `CCCCCc1cc(O)c2c(c1)OC(C)(C)[C@@H]1CC[C@H](O)C[C@@H]21`, the Activity entry with Canis familiaris [1] is “Toxic”.
With `CN1CC[C@]23c4c5ccc(O)c4O[C@H]2[C@@H](O)C=C[C@H]3[C@H]1C5.Cl` [MORPHINE HYDROCHLORIDE], the ED50 with Mus musculus [5] is 1.2 mg/kg.
As to `CCCCCc1cc(O)c2c(c1)OC(C)(C)c1ccc(O)cc1-2`, the Activity result in the data set on Canis familiaris [1] is recorded as “Toxic”; with Canis familiaris [10], “Toxic”; in the data set on Canis familiaris [3], “Non-toxic”; in the data set on Canis familiaris [4], “Non-toxic”. The compound further showed an ED50 with Mus musculus [5] of 35.6 mg/kg. Further, in the data set with Mus musculus [11], the outcome was inactive.
